Results published in US11950594B2, “Methods and compositions for inhibiting formation of biofilms” (INSTITUTE OF MICROBIOLOGY, CHINESE ACADEMY OF SCIENCES, priority 2019, dated 2024).

How the values were obtained:
[1] = system: Pseudomonas aeruginosa; experiment: MIC of antibiotics, Calgary biofilm device; format: cell-based; conditions: treated with C9 5 mM, versus untreated group
Method: MIC and MBEC values of a biofilm formed on a peg of a […] biofilm device (CGM and CBD) treated with the coumarin-chalcone compound C9 were measured according to methods (Innovotech) in MBECTM high throughput experimental operation manual. Biofilm treated with the coumarin-chalcone compound C9 (5 mM) was cultured in an antibiotic-containing medium in a 96-well plate for 24 h, and the MIC value was obtained by measuring the OD600 of planktonic cells of the above samples. To determine the MBEC value, the biofilm treated with the coumarin-chalcone compound C9 (5 mM) was cultured in an antibiotic-containing medium in a 96-well plate for 24 h, then the biofilm was ultrasonically crushed and subsequently incubated at 37° C. for another 24 hours. Biomass of newly formed biofilms was recorded to indicate the corresponding MBEC value.

[2] = system: Pseudomonas aeruginosa; experiment: Virulence in cabbage model; format: in vivo; conditions: C9 5 mM, 37° C., 36 hours, CFU
Method: The PAO1 culture inoculated with the coumarin-chalcone compound C9 (5 mM) was injected into a cabbage model and incubated at 37° C. for 36 hours. Then the colony phenotype was observed and colony-forming units (CFU) were calculated.
In the embodiment, the cabbage model was used to carry out the vivo experiment in vivo to study whether the coumarin-chalcone compound C9 affects the virulence of Pseudomonas aeruginosa. FIG. 9 is a schematic diagram illustrating virulences of bacteria of a blank group, a control group, and an experimental group treated with a coumarin-chalcone compound C9.

[3] = system: PAO1 strains; experiment: Bacterial motility assay, twitching plate; format: cell-based, Pseudomonas aeruginosa; conditions: 37° C., 24 hours
Method: PAO1 strains were inoculated into a LBNS agar plate and were cultured overnight at 37° C. Single colonies were respectively stab-inoculated to the bottom of twitching plates with and without the coumarin-chalcone compound C9, and cultured at 37° C. for 24 hours. The growth of bacteria at an interface between the agar and the plastic plate was a twitching movement. When 1% TTC was added to the medium, the area that bacteria have visited may turn red, and then the diameter of the red area on each twitching plate was measured.

COc1cccc(/C=C/C(=O)c2cc3ccccc3oc2=O)c1 [Compound C9]
MIC of a biofilm against ciprofloxacin [1]: significantly lower | MIC of a biofilm against tobramycin [1]: significantly lower | reduction of virulence of Pseudomonas aeruginosa in the cabbage model [2]: 60% | twitching motility mediated by type IV pili [3]: no effect
